{"source": "patent US20100173930A1", "about": "“Certain Chemical Entities, Compositions and Methods” (priority 2006, published 2010)", "data": [{"tested_on": "SKM MYOFIBRIL", "assay": "SKM myofibril AC1.4 (ATPase, PK/LDH coupled enzyme system); further: unit not given here", "assay_type": "biochemical", "details": "screen at pCa=6.5", "values": [{"smiles": "Oc1ccc(-c2nc3ccccn3c2NCc2cccc(Cl)c2)cc1", "note": "[4-(3-{[(3-chlorophenyl)methyl]amino}-4-hydroimidazo[1,2-a]pyridin-2-yl)phenol]", "SKM MYOFIBRIL AC1.4 (median)": 10.5567}, {"smiles": "Oc1ccc(-c2nc3ccccn3c2NCc2ccccc2)cc1", "note": "[4-{3-[benzylamino]-4-hydroimidazo[1,2-a]pyridin-2-yl}phenol]", "SKM MYOFIBRIL AC1.4 (median)": 27.3665}, {"smiles": "O=C(c1ccc2nc(-c3ccccc3O)c(NCc3cccc(Cl)c3)n2c1)N1CCOCC1", "note": "[3-{[(3-chlorophenyl)methyl]amino}-2-(2-hydroxyphenyl)(4-hydroimidazo[1,2-a]pyridin-6-yl) morpholin-4-yl ketone]", "SKM MYOFIBRIL AC1.4 (median)": 24.9925}, {"smiles": "COC(=O)c1ccn2c(NCc3cccc(Cl)c3)c(-c3ccccc3O)nc2c1", "note": "[methyl 3-{[(3-chlorophenyl)methyl]amino}-2-(2-hydroxyphenyl)-4-hydroimidazo[1,2-a]pyridine-7-carboxylate]", "SKM MYOFIBRIL AC1.4 (median)": 5.1088}, {"smiles": "N#Cc1ccc2nc(-c3ccccc3O)c(NCc3cccc(Cl)c3)n2c1", "note": "[3-{[(3-chlorophenyl)methyl]amino}-2-(2-hydroxyphenyl)-4-hydroimidazo[1,2-a]pyridine-6-carbonitrile]", "SKM MYOFIBRIL AC1.4 (median)": 2.6805}, {"smiles": "COC(=O)c1ccc2nc(-c3ccccc3O)c(NCc3ccc(F)cc3)n2c1", "note": "[methyl 3-{[(4-fluorophenyl)methyl]amino}-2-(2-hydroxyphenyl)-4-hydroimidazo[1,2-a]pyridine-6-carboxylate]", "SKM MYOFIBRIL AC1.4 (median)": 4.201}, {"smiles": "CNC(=O)c1ccc2nc(-c3ccccc3O)c(NCc3cccc(Cl)c3)n2c1", "note": "[(3-{[(3-chlorophenyl)methyl]amino}-2-(2-hydroxyphenyl)(4-hydroimidazo[1,2-a]pyridin-6-yl))-N-methylcarboxamide]", "SKM MYOFIBRIL AC1.4 (median)": 1.2348}, {"smiles": "Cc1ccn2c(NCc3ccccc3)c(-c3ccccc3O)nc2c1", "note": "[2-{7-methyl-3-[benzylamino]-4-hydroimidazo[1,2-a]pyridin-2-yl}phenol]", "SKM MYOFIBRIL AC1.4 (median)": 2.0618}, {"smiles": "Cc1ccn2c(NCc3cccc(Cl)c3)c(-c3ccc(O)cc3O)nc2c1", "note": "[4-(3-{[(3-chlorophenyl)methyl]amino}-7-methyl-4-hydroimidazo[1,2-a]pyridin-2-yl)benzene-1,3-diol]", "SKM MYOFIBRIL AC1.4 (median)": 22.1516}, {"smiles": "CC(CO)c1ccn2c(NCc3cccc(Cl)c3)c(-c3ccccc3O)nc2c1", "note": "(centres unmarked) [2-(3-{[(3-chlorophenyl)methyl]amino}-7-(1-hydroxy-isopropyl)-4-hydroimidazo[1,2-a]pyridin-2-yl)phenol]", "SKM MYOFIBRIL AC1.4 (median)": 1.2697}, {"smiles": "CN(C)CCNC(=O)c1ccc2nc(-c3ccccc3O)c(NCc3ccc(F)cc3)n2c1", "note": "[N-[2-(dimethylamino)ethyl](3-{[(4-fluorophenyl)methyl]amino}-2-(2-hydroxyphenyl)(4-hydroimidazo[1,2-a]pyridin-6-yl))carboxamide]", "SKM MYOFIBRIL AC1.4 (median)": 4.4632}, {"smiles": "CNC(=O)c1ccc2nc(-c3ccccc3O)c(NCc3ccc(F)cc3)n2c1", "note": "[(3-{[(4-fluorophenyl)methyl]amino}-2-(2-hydroxyphenyl)(4-hydroimidazo[1,2-a]pyridin-6-yl))-N-methylcarboxamide]", "SKM MYOFIBRIL AC1.4 (median)": 1.8401}, {"smiles": "CCc1ccn2c(NCc3cccc(Cl)c3)c(-c3ccccc3O)nc2c1", "note": "[2-(3-{[(3-chlorophenyl)methyl]amino}-7-ethyl-4-hydroimidazo[1,2-a]pyridin-2-yl)phenol]", "SKM MYOFIBRIL AC1.4 (median)": 0.9168}, {"smiles": "Cc1cn2c(NCc3cccc(Cl)c3)c(-c3ccccc3O)nc2c(C)n1", "note": "[2-(3-{[(3-chlorophenyl)methyl]amino}-6,8-dimethyl-4-hydroimidazo[1,2-a]pyrazin-2-yl)phenol]", "SKM MYOFIBRIL AC1.4 (median)": 6.4593}, {"smiles": "CCc1ccn2c(NCc3ccc(F)cc3)c(-c3ccccc3O)nc2c1", "note": "[2-(7-ethyl-3-{[(4-fluorophenyl)methyl]amino}-4-hydroimidazo[1,2-a]pyridin-2-yl)phenol]", "SKM MYOFIBRIL AC1.4 (median)": 0.9459}, {"smiles": "Oc1ccc(-c2nc3cccc(Br)n3c2NC2CCCCC2)cc1", "note": "[4-[5-bromo-3-(cyclohexylamino)-4-hydroimidazo[1,2-a]pyridin-2-yl]phenol]", "SKM MYOFIBRIL AC1.4 (median)": 21.5453}, {"smiles": "COC(=O)c1ccc2nc(-c3ccccc3O)c(NCc3cccc(Cl)c3)n2c1", "note": "[methyl 3-{[(3-chlorophenyl)methyl]amino}-2-(2-hydroxyphenyl)-4-hydroimidazo[1,2-a]pyridine-6-carboxylate]", "SKM MYOFIBRIL AC1.4 (median)": 2.0174}, {"smiles": "Oc1ccc(-c2nc3ccc(F)cn3c2NC2CCCC2)cc1", "note": "[4-[3-(cyclopentylamino)-6-fluoro-4-hydroimidazo[1,2-a]pyridin-2-yl]phenol]", "SKM MYOFIBRIL AC1.4 (median)": 26.6981}, {"smiles": "Cc1cn2c(NCc3cccc(Cl)c3)c(-c3ccccc3O)nc2cn1", "note": "[2-(3-{[(3-chlorophenyl)methyl]amino}-6-methyl-4-hydroimidazo[1,2-a]pyrazin-2-yl)phenol]", "SKM MYOFIBRIL AC1.4 (median)": 3.6886}, {"smiles": "CC(C)(O)c1ccc2nc(-c3ccccc3O)c(NCc3cccc(Cl)c3)n2c1", "note": "[2-(3-{[(3-chlorophenyl)methyl]amino}-6-(1-hydroxy-isopropyl)-4-hydroimidazo[1,2-a]pyridin-2-yl)phenol]", "SKM MYOFIBRIL AC1.4 (median)": 2.0993}, {"smiles": "O=C(NCCO)c1ccc2nc(-c3ccccc3O)c(NCc3cccc(Cl)c3)n2c1", "note": "[(3-{[(3-chlorophenyl)methyl]amino}-2-(2-hydroxyphenyl)(4-hydroimidazo[1,2-a]pyridin-6-yl))-N-(2-hydroxyethyl)carboxamide]", "SKM MYOFIBRIL AC1.4 (median)": 1.3334}, {"smiles": "Fc1ccc(-c2nc3ccccn3c2NC2CCCCC2)cc1", "note": "[cyclohexyl[2-(4-fluorophenyl)(4-hydroimidazo[1,2-a]pyridin-3-yl)]amine]", "SKM MYOFIBRIL AC1.4 (median)": 9.155}, {"smiles": "OCc1ccc2nc(-c3ccccc3O)c(NCc3cccc(Cl)c3)n2c1", "note": "[2-(3-{[(3-chlorophenyl)methyl]amino}-6-(hydroxymethyl)-4-hydroimidazo[1,2-a]pyridin-2-yl)phenol]", "SKM MYOFIBRIL AC1.4 (median)": 1.6756}, {"smiles": "CN(C)C(=O)c1ccc2nc(-c3ccccc3O)c(NCc3cccc(Cl)c3)n2c1", "note": "[(3-{[(3-chlorophenyl)methyl]amino}-2-(2-hydroxyphenyl)(4-hydroimidazo[1,2-a]pyridin-6-yl))-N,N-dimethylcarboxamide]", "SKM MYOFIBRIL AC1.4 (median)": 16.9244}, {"smiles": "Cc1ccc2nc(-c3ccccc3O)c(NCc3cccc(Cl)c3)n2n1", "note": "[2-(3-{[(3-chlorophenyl)methyl]amino}-6-methyl-4-hydroimidazo[1,2-e]pyridazin-2-yl)phenol]", "SKM MYOFIBRIL AC1.4 (median)": 3.5753}, {"smiles": "CCCCNc1c(-c2ccc(O)cc2)nc2ccccn12", "note": "[4-[3-(butylamino)-4-hydroimidazo[1,2-a]pyridin-2-yl]phenol]", "SKM MYOFIBRIL AC1.4 (median)": 27.9936}, {"smiles": "COc1ccc(-c2nc3cc(C)ccn3c2NCc2cccc(Cl)c2)c(O)c1", "note": "[2-(3-{[(3-chlorophenyl)methyl]amino}-7-methyl(4-hydroimidazo[1,2-a]pyridin-2-yl))-5-methoxyphenol]", "SKM MYOFIBRIL AC1.4 (median)": 27.0817}, {"smiles": "Cc1ccn2c(NCc3ccc(F)cc3)c(-c3ccc(O)cc3)nc2c1", "note": "[4-(3-{[(4-fluorophenyl)methyl]amino}-7-methyl-4-hydroimidazo[1,2-a]pyridin-2-yl)phenol]", "SKM MYOFIBRIL AC1.4 (median)": 44.5161}, {"smiles": "NCc1ccc2nc(-c3ccccc3O)c(NCc3cccc(Cl)c3)n2c1", "note": "[2-(6-(aminomethyl)-3-{[(3-chlorophenyl)methyl]amino}-4-hydroimidazo[1,2-a]pyridin-2-yl)phenol]", "SKM MYOFIBRIL AC1.4 (median)": 0.2349}]}]}
